One block for each compound: values may come before it.
Test system: 282377-053-R-J1-PDC complex spheroid viability
Assay: Anticancer human tumor 282377-053-R-J1-PDC patient-derived colon adenocarcinoma cell line growth inhibition [RAS]
Conditions: for IC50: curve of first compound; for viability, T/C: stronger effect = lower value
Procedure, shortened: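 Tumour cells grown as complex spheroids with HUVEC endothelial cells and mesenchymal stem cells, treated with RAS pathway inhibitor combinations. Each agent spans half-log steps from near clinical Cmax, or 10 microM where Cmax is unknown.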

[1] = second compound 0.000949 µM, first compound 0.0316 µM
[2] = second compound 0.000949 µM, first compound 0.1 µM
[3] = second compound 0.000949 µM, first compound 0.316 µM
[4] = second compound 0.000949 µM, first compound 1 µM
[5] = second compound 0.000949 µM, first compound 3.16 µM
[6] = second compound 0.000949 µM, first compound 10 µM
[7] = second compound 0.003 µM, first compound 0.0316 µM
[8] = second compound 0.003 µM, first compound 0.1 µM
[9] = second compound 0.003 µM, first compound 0.316 µM
[10] = second compound 0.003 µM, first compound 1 µM
[11] = second compound 0.003 µM, first compound 3.16 µM
[12] = second compound 0.003 µM, first compound 10 µM
[13] = second compound 0.00949 µM, first compound 0.0316 µM
[14] = second compound 0.00949 µM, first compound 0.1 µM
[15] = second compound 0.00949 µM, first compound 0.316 µM
[16] = second compound 0.00949 µM, first compound 1 µM
[17] = second compound 0.00949 µM, first compound 3.16 µM
[18] = second compound 0.00949 µM, first compound 10 µM
[19] = second compound 0.03 µM, first compound 0.0316 µM
[20] = second compound 0.03 µM, first compound 0.1 µM
[21] = second compound 0.03 µM, first compound 0.316 µM
[22] = second compound 0.03 µM, first compound 1 µM
[23] = second compound 0.03 µM, first compound 3.16 µM
[24] = second compound 0.03 µM, first compound 10 µM
[25] = second compound 0.0949 µM, first compound 0.0316 µM
[26] = second compound 0.0949 µM, first compound 0.1 µM
[27] = second compound 0.0949 µM, first compound 0.316 µM
[28] = second compound 0.0949 µM, first compound 1 µM
[29] = second compound 0.0949 µM, first compound 3.16 µM
[30] = second compound 0.0949 µM, first compound 10 µM
[31] = second compound 0.3 µM, first compound 0.0316 µM
[32] = second compound 0.3 µM, first compound 0.1 µM
[33] = second compound 0.3 µM, first compound 0.316 µM
[34] = second compound 0.3 µM, first compound 1 µM
[35] = second compound 0.3 µM, first compound 3.16 µM
[36] = second compound 0.3 µM, first compound 10 µM
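Further: spheroids exposed to agents for seven days before readout.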
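Wherever viability, T/C is given: luminescence viability as percent of DMSO vehicle control wells.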

- IC50 (second compound 0.000949 µM): < 31.6 nM
- IC50 (second compound 0.003 µM): < 31.6 nM
- IC50 (second compound 0.00949 µM): < 31.6 nM
- IC50 (second compound 0.03 µM): < 31.6 nM
- IC50 (second compound 0.0949 µM): < 31.6 nM
- IC50 (second compound 0.3 µM): < 31.6 nM
Structure (SMILES): CC(=O)OC12COC1CC(O)C1(C)C(=O)C(O)C3=C(C)C(OC(=O)C(O)C(NC(=O)OC(C)(C)C)c4ccccc4)CC(O)(C(OC(=O)c4ccccc4)C21)C3(C)C (stereo unspecified) + CCn1c(-c2cc(N3CCN(C)CC3)cnc2C(C)OC)c2c3cc(ccc31)-c1csc(n1)CC(NC(=O)C1CC1C)C(=O)N1CCCC(N1)C(=O)OCC(C)(C)C2
- viability, T/C [1]: 41.2%
- viability, T/C [2]: 48.6%
- viability, T/C [3]: 44.2%
- viability, T/C [4]: 52%
- viability, T/C [5]: 61%
- viability, T/C [6]: 97.3%
- viability, T/C [7]: 50.1%
- viability, T/C [8]: 38.4%
- viability, T/C [9]: 45.5%
- viability, T/C [10]: 55.2%
- viability, T/C [11]: 52.2%
- viability, T/C [12]: 83.2%
- viability, T/C [13]: 50.1%
- viability, T/C [14]: 42.6%
- viability, T/C [15]: 52.5%
- viability, T/C [16]: 38.7%
- viability, T/C [17]: 72.2%
- viability, T/C [18]: 91.9%
- viability, T/C [19]: 36.1%
- viability, T/C [20]: 46%
- viability, T/C [21]: 41.9%
- viability, T/C [22]: 58.2%
- viability, T/C [23]: 60.5%
- viability, T/C [24]: 96.2%
- viability, T/C [25]: 42%
- viability, T/C [26]: 49.4%
- viability, T/C [27]: 46.3%
- viability, T/C [28]: 40.2%
- viability, T/C [29]: 77.5%
- viability, T/C [30]: 77.6%
- viability, T/C [31]: 43.1%
- viability, T/C [32]: 54.1%
- viability, T/C [33]: 47.9%
- viability, T/C [34]: 56.3%
- viability, T/C [35]: 79.6%
- viability, T/C [36]: 100%

- IC50 (second compound 0.000949 µM): > 10000 nM
- IC50 (second compound 0.003 µM): > 10000 nM
- IC50 (second compound 0.00949 µM): > 10000 nM
- IC50 (second compound 0.03 µM): > 10000 nM
- IC50 (second compound 0.0949 µM): > 10000 nM
- IC50 (second compound 0.3 µM): > 10000 nM
Structure (SMILES): NC1c2ccccc2OC12CCN(c1cnc3c(N4CCCc5ncccc54)n[nH]c3n1)CC2 (stereo unspecified) + CCn1c(-c2cc(N3CCN(C)CC3)cnc2C(C)OC)c2c3cc(ccc31)-c1csc(n1)CC(NC(=O)C1CC1C)C(=O)N1CCCC(N1)C(=O)OCC(C)(C)C2
- viability, T/C [1]: 96.6%
- viability, T/C [2]: 102%
- viability, T/C [3]: 87.7%
- viability, T/C [4]: 99.9%
- viability, T/C [5]: 106%
- viability, T/C [6]: 140%
- viability, T/C [7]: 97.4%
- viability, T/C [8]: 102%
- viability, T/C [9]: 96.3%
- viability, T/C [10]: 99%
- viability, T/C [11]: 93.7%
- viability, T/C [12]: 98.6%
- viability, T/C [13]: 135%
- viability, T/C [14]: 96.2%
- viability, T/C [15]: 111%
- viability, T/C [16]: 90.8%
- viability, T/C [17]: 100%
- viability, T/C [18]: 107%
- viability, T/C [19]: 115%
- viability, T/C [20]: 109%
- viability, T/C [21]: 101%
- viability, T/C [22]: 123%
- viability, T/C [23]: 122%
- viability, T/C [24]: 97%
- viability, T/C [25]: 108%
- viability, T/C [26]: 118%
- viability, T/C [27]: 100%
- viability, T/C [28]: 107%
- viability, T/C [29]: 111%
- viability, T/C [30]: 112%
- viability, T/C [31]: 126%
- viability, T/C [32]: 152%
- viability, T/C [33]: 105%
- viability, T/C [34]: 117%
- viability, T/C [35]: 110%
- viability, T/C [36]: 106%

- IC50 (second compound 0.000949 µM): > 1000 nM
- IC50 (second compound 0.003 µM): > 1000 nM
- IC50 (second compound 0.00949 µM): > 1000 nM
- IC50 (second compound 0.03 µM): > 1000 nM
- IC50 (second compound 0.0949 µM): > 1000 nM
- IC50 (second compound 0.3 µM): > 1000 nM
Structure (SMILES): Nc1ccn(C2OC(CO)C(O)C2(F)F)c(=O)n1 (stereo unspecified) + CCn1c(-c2cc(N3CCN(C)CC3)cnc2C(C)OC)c2c3cc(ccc31)-c1csc(n1)CC(NC(=O)C1CC1C)C(=O)N1CCCC(N1)C(=O)OCC(C)(C)C2
- viability, T/C (second compound 0.000949 µM, first compound 0.00316 µM): 107%
- viability, T/C (second compound 0.000949 µM, first compound 0.01 µM): 95.1%
- viability, T/C [1]: 120%
- viability, T/C [2]: 107%
- viability, T/C [3]: 101%
- viability, T/C [4]: 66.8%
- viability, T/C (second compound 0.003 µM, first compound 0.00316 µM): 90%
- viability, T/C (second compound 0.003 µM, first compound 0.01 µM): 110%
- viability, T/C [7]: 106%
- viability, T/C [8]: 111%
- viability, T/C [9]: 93.8%
- viability, T/C [10]: 64.6%
- viability, T/C (second compound 0.00949 µM, first compound 0.00316 µM): 116%
- viability, T/C (second compound 0.00949 µM, first compound 0.01 µM): 95.9%
- viability, T/C [13]: 129%
- viability, T/C [14]: 107%
- viability, T/C [15]: 96.4%
- viability, T/C [16]: 69%
- viability, T/C (second compound 0.03 µM, first compound 0.00316 µM): 104%
- viability, T/C (second compound 0.03 µM, first compound 0.01 µM): 100%
- viability, T/C [19]: 108%
- viability, T/C [20]: 115%
- viability, T/C [21]: 86.7%
- viability, T/C [22]: 71.5%
- viability, T/C (second compound 0.0949 µM, first compound 0.00316 µM): 104%
- viability, T/C (second compound 0.0949 µM, first compound 0.01 µM): 95.2%
- viability, T/C [25]: 100%
- viability, T/C [26]: 106%
- viability, T/C [27]: 123%
- viability, T/C [28]: 72.5%
- viability, T/C (second compound 0.3 µM, first compound 0.00316 µM): 120%
- viability, T/C (second compound 0.3 µM, first compound 0.01 µM): 94.2%
- viability, T/C [31]: 129%
- viability, T/C [32]: 131%
- viability, T/C [33]: 118%
- viability, T/C [34]: 108%
